# According to publication PMC10046037, “GABRG2 Variants Associated with Febrile Seizures” (Biomolecules, 2023):
# Target: T1, α1β3γ2 GABAA receptor, γ2F464S variant (Homo sapiens, UniProt P14867+P18507+P28472, F464S)
# T1 construct: expressed in transfected cells; host or cells: HEK293T
# T1 sequence (P14867 28-456): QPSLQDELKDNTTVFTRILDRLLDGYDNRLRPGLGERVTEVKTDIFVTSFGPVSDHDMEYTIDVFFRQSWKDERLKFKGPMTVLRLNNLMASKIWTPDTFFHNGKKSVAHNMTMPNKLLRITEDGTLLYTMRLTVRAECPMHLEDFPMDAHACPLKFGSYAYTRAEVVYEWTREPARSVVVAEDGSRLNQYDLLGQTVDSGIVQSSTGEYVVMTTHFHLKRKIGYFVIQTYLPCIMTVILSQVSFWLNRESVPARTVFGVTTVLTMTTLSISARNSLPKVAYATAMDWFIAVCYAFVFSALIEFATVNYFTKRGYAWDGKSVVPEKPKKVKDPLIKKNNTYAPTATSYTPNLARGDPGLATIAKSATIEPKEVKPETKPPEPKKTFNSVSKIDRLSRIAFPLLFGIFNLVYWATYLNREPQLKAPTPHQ
# T1 sequence (P28472 26-473 isoform P28472-2): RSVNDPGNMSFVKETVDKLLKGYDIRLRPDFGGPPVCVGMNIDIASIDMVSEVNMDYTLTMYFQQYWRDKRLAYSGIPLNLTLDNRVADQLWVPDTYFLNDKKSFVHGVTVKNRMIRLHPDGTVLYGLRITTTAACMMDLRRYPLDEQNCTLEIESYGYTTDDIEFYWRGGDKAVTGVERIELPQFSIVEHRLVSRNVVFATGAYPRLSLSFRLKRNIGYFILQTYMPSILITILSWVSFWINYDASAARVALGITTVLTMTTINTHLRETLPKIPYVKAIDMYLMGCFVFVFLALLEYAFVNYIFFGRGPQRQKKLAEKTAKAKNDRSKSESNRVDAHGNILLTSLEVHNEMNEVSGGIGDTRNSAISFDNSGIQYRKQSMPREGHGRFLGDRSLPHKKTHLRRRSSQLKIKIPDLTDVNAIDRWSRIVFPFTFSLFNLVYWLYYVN
# T1 sequence (P18507 40-475 F464S): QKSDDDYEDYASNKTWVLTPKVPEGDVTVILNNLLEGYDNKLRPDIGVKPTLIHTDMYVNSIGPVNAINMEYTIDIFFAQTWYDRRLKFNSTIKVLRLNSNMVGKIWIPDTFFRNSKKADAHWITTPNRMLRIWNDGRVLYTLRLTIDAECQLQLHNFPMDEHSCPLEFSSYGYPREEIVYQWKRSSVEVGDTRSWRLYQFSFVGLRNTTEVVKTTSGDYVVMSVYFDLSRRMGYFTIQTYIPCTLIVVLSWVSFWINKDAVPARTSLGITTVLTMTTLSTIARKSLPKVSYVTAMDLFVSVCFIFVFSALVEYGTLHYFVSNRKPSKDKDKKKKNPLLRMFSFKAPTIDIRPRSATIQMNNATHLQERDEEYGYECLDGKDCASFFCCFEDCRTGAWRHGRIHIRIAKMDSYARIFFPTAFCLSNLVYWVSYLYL
# Assay: Automated patch clamp of GABA-elicited currents (SyncroPatch 384PE), γ2F464S
# Type: cell-based
# Details: mean
# Experimental: The coding sequences of human α1 (GABRA1, NM_000806), β3 (GABRB3, NM_021912), and γ2 (GABRG2, NM_198904.2) GABAAR subunits were subcloned into the pcDNA3.1 expression vectors (Invitrogen, Waltham, MA, USA).
# HEK293T cells (ATCC, CRL-11268) were cultured at 37 °C in a humidified 5% CO2 incubator and maintained in Dulbecco’s modified Eagle’s medium (Invitrogen) supplemented with 10% fetal bovine serum (Life Technologies, Carlsbad, CA, USA), and 100 IU/mL of penicillin/streptomycin (Life Technologies). For the expression experiments, 4 × 10^5 cells were transfected using polyethylenimine (PEI) reagent (40 kD, Polysciences, Warrington, PA, USA) at a DNA: to transfection reagent ratio of 1:2.5 and harvested 36 h after transfection. To express WT and variant α1β3γ2 receptors, a total of 3 µg of α1, β3, and γ2 (WT or mutant) subunit cDNAs were transfected at a ratio of 1:1:1 into 60 mm culture dishes. For the mock-transfected condition, an empty pcDNA3.1 vector was added for a final cDNA transfection amount of 3 μg. For the electrophysiology experiments, 2.5 × 10^5 cells were plated in 100 mm culture dishes and transfected after 24 h with 3 μg of cDNA of each α1, β3, γ2 (wild-type or mutant) subunit, using X-tremeGENE HP DNA transfection Reagent (Roche Diagnostics, Basel, Switzerland), following the manufacturer’s protocol. Recordings were obtained forty-eight hours after transfection.
# Whole-cell patch clamp recordings were conducted according to the manufacturer’s standard procedure for the SyncroPatch 384 [31]. Whole-cell voltage-clamp recordings were performed at room temperature on HEK293T cells 48 h after transfection with GABAAR subunits, using the SyncroPatch 384PE (Nanion Technologies, Munich, Germany). Cells, at a concentration of 400,000 cells/mL, were harvested in suspension in external solution containing 140 mM of NaCl, 2 mM of CaCl2, 4 mM of KCl, 1 mM of MgCl2, 5 mM of glucose, and 10 mM of HEPES (pH 7.4 with NaOH, 298 mOsm). The cells were loaded in a multi-hole (4 holes per well) 384-well Nanion patch clamp (NPC) chip with a thick borosilicate glass bottom and an average resistance pore size of […]. Built-in electrophysiological protocols were used, and the data were digitized using PatchControl 384 (Nanion Technologies) application. Using PatchControl 384, electrophysiological parameters, such as seal resistance, capacitance, and series resistance, were determined for each well after the application of a test pulse, and subsequently monitored over time. […] The currents were normalized to the maximal response of each well, and the concentration–response curves were calculated from single-point additions. The EC50 values for each variant or wild-type receptor were calculated across multiple wells for each experimental condition.
smiles,measurement,setting,value
"NCCCC(=O)O [GABA, γ-aminobutyric acid]",Deactivation,"1 mM GABA for 5 ms, HEK293T, -80 mV",332.6 ms
same,IMAX (maximal GABA-evoked peak current),"1 mM GABA for 5 ms, HEK293T",0.96 nA
same,IMAX variant/IMAX WT,1 mM GABA,47.93%
same,Rise Time,"10–90% rise time, 1 mM GABA for 5 ms, HEK293T",29.22 ms
